Data reported in article PMC10247784, “Physiological activation of human and mouse bitter taste receptors by bile acids” (Communications Biology, 2023).
“And” between values parts separate entries of the source, which are not always exact repeats. Equal entries are not always repeated.

Target: T1, human TAS2R14 (Homo sapiens, UniProt Q9NYV8)
T1 construct: expressed in transfected cells; host or cells: HEK293T-Gα16gust44
T1 sequence (Q9NYV8 1-317): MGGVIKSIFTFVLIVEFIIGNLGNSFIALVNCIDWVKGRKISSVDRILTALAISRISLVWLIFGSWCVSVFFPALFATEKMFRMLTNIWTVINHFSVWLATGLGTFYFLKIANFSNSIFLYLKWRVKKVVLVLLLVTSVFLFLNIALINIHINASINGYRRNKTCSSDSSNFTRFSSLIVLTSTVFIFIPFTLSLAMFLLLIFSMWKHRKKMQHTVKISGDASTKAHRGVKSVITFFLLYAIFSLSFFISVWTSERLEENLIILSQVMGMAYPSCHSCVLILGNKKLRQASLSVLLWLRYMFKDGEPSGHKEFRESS
Experiment: Calcium imaging assay (FLIPR), HEK293T-Gα16gust44 cells transfected with human TAS2R14
Format: cell-based
Settings: for RLU: TAS2R14 trace
In short: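 Read-out is Fluo-4 fluorescence change (ΔF/F) after automated application of bile acids (DMSO stocks) to transiently transfected cells. Values are corrected for empty-vector cells and normalized to buffer. Dose-response from three independent experiments in duplicate; threshold concentration set at p < 0.01 versus mock.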

C[C@H](CCC(=O)NCCS(=O)(=O)O)[C@H]1CC[C@H]2[C@@H]3[C@H](O)C[C@@H]4C[C@H](O)CC[C@]4(C)[C@H]3C[C@H](O)[C@]12C [Taurocholic Acid, taurocholic acid]
Efficacy = maximal amplitude (ΔF/F) (TAS2R14, bile acids, mean): 0.2246 | Efficacy (maximal amplitude ΔF/F), individual data points (TAS2R14, bile acids, single replicates, listed as TCA): 0.1896 and 0.238 and 0.2462 | Δ F/F (TAS2R14, conc. 0,01 mM): -0.01734 | Δ F/F (TAS2R14, conc. 0,1 mM): -0.007315 | Δ F/F (TAS2R14, conc. 0,03 mM): -0.005139 | Δ F/F (TAS2R14, conc. 0,3 mM): 0.03332 | Δ F/F (TAS2R14, conc. 0,001 mM): -0.02529 | Δ F/F (TAS2R14, conc. 1 mM): 0.2246 | Δ F/F (TAS2R14, conc. 0,003 mM): -0.01812 | RLU (Time (s) 0): 0 RLU | RLU (Time (s) 2 (Taurocholic Acid 2.016)): 15.4574 RLU | RLU (Time (s) 4 (Taurocholic Acid 4.016)): -13.3747 RLU | RLU (Time (s) 6 (Taurocholic Acid 6.016)): -38.8354 RLU | RLU (Time (s) 8 (Taurocholic Acid 8.016)): -33.6332 RLU | RLU (Time (s) 12 (Taurocholic Acid 12.016)): -53.4595 RLU | RLU (Time (s) 14 (Taurocholic Acid 14.016)): -55.3521 RLU | RLU (Time (s) 16 (Taurocholic Acid 16.016)): -65.1913 RLU | RLU (Time (s) 18 (Taurocholic Acid 18.016)): -43.8232 RLU | RLU (Time (s) 18.797 (Chenodeoxycholic Acid 18.765)): -59.7397 RLU | RLU (Time (s) 20.797 (Chenodeoxycholic Acid 20.781)): -48.6104 RLU | RLU (Time (s) 22.797 (Chenodeoxycholic Acid 22.781)): -37.2936 RLU | RLU (Time (s) 24.797 (Chenodeoxycholic Acid 24.781)): -25.1873 RLU | RLU (Time (s) 26.797 (Chenodeoxycholic Acid 26.781)): -30.6749 RLU | RLU (Time (s) 28.797 (Chenodeoxycholic Acid 28.781)): 4.524 RLU | RLU (Time (s) 30.797 (Chenodeoxycholic Acid 30.781)): -8.18 RLU | RLU (Time (s) 32.797 (Chenodeoxycholic Acid 32.781)): 30.1537 RLU | RLU (Time (s) 34.797 (Chenodeoxycholic Acid 34.781)): 70.0865 RLU | RLU (Time (s) 36.797 (Chenodeoxycholic Acid 36.781)): 98.6425 RLU | RLU (Time (s) 38.797 (Chenodeoxycholic Acid 38.781)): 134.228 RLU | RLU (Time (s) 40.797 (Chenodeoxycholic Acid 40.781)): 192.709 RLU | RLU (Time (s) 42.797 (Chenodeoxycholic Acid 42.781)): 232.913 RLU | RLU (Time (s) 44.797 (Chenodeoxycholic Acid 44.781)): 243.453 RLU | RLU (Time (s) 46.797 (Chenodeoxycholic Acid 46.781)): 297.017 RLU | RLU (Time (s) 48.797 (Chenodeoxycholic Acid 48.781)): 343.953 RLU | RLU (Time (s) 50.797 (Chenodeoxycholic Acid 50.781)): 379.622 RLU | RLU (Time (s) 52.797 (Chenodeoxycholic Acid 52.781)): 398.833 RLU | RLU (Time (s) 54.797 (Chenodeoxycholic Acid 54.781)): 459.728 RLU | RLU (Time (s) 56.797 (Chenodeoxycholic Acid 56.781)): 470.92 RLU | RLU (Time (s) 58.797 (Chenodeoxycholic Acid 58.781)): 515.163 RLU | RLU (Time (s) 60.797 (Chenodeoxycholic Acid 60.781)): 529.36 RLU | RLU (Time (s) 62.797 (Chenodeoxycholic Acid 62.781)): 543.404 RLU | RLU (Time (s) 64.797 (Chenodeoxycholic Acid 64.781)): 572.542 RLU | RLU (Time (s) 66.797 (Chenodeoxycholic Acid 66.781)): 570.299 RLU | RLU (Time (s) 68.797 (Chenodeoxycholic Acid 68.781)): 602.865 RLU | RLU (Time (s) 70.797 (Chenodeoxycholic Acid 70.781)): 609.474 RLU | RLU (Time (s) 72.797 (Chenodeoxycholic Acid 72.781)): 663.572 RLU | RLU (Time (s) 74.797 (Chenodeoxycholic Acid 74.781)): 688.158 RLU | RLU (Time (s) 76.797 (Chenodeoxycholic Acid 76.781)): 696.58 RLU | RLU (Time (s) 78.797 (Chenodeoxycholic Acid 78.781)): 702.313 RLU | RLU (Time (s) 80.797 (Chenodeoxycholic Acid 80.781)): 724.676 RLU | RLU (Time (s) 82.797 (Chenodeoxycholic Acid 82.781)): 729.222 RLU | RLU (Time (s) 84.797 (Chenodeoxycholic Acid 84.781)): 755.668 RLU | RLU (Time (s) 86.797 (Chenodeoxycholic Acid 86.781)): 758.133 RLU | RLU (Time (s) 88.797 (Chenodeoxycholic Acid 88.781)): 801.791 RLU | RLU (Time (s) 90.797 (Chenodeoxycholic Acid 90.781)): 813.667 RLU | RLU (Time (s) 92.797 (Chenodeoxycholic Acid 92.781)): 823.99 RLU | RLU (Time (s) 94.797 (Chenodeoxycholic Acid 94.781)): 849.724 RLU | RLU (Time (s) 96.797 (Chenodeoxycholic Acid 96.781)): 840.46 RLU | RLU (Time (s) 98.797 (Chenodeoxycholic Acid 98.781)): 832.423 RLU | RLU (Time (s) 100.797 (Chenodeoxycholic Acid 100.781)): 870.888 RLU | RLU (Time (s) 102.797 (Chenodeoxycholic Acid 102.781)): 887.784 RLU | RLU (Time (s) 104.797 (Chenodeoxycholic Acid 104.781)): 895.487 RLU | RLU (Time (s) 106.797 (Chenodeoxycholic Acid 106.781)): 886.141 RLU | RLU (Time (s) 108.797 (Chenodeoxycholic Acid 108.781)): 931.883 RLU | RLU (Time (s) 110.797 (Chenodeoxycholic Acid 110.781)): 935.64 RLU | RLU (Time (s) 112.797 (Chenodeoxycholic Acid 112.781)): 971.794 RLU | RLU (Time (s) 114.797 (Chenodeoxycholic Acid 114.781)): 962.409 RLU | RLU (Time (s) 116.797 (Chenodeoxycholic Acid 116.781)): 993.706 RLU | RLU (Time (s) 118.797 (Chenodeoxycholic Acid 118.781)): 1000.54 RLU | RLU (Time (s) 120.797 (Chenodeoxycholic Acid 120.781)): 1025.82 RLU | RLU (Time (s) 122.797 (Chenodeoxycholic Acid 122.781)): 1039.5 RLU | RLU (Time (s) 124.797 (Chenodeoxycholic Acid 124.781)): 1041.39 RLU | RLU (Time (s) 126.797 (Chenodeoxycholic Acid 126.781)): 1050.25 RLU | RLU (Time (s) 128.797 (Chenodeoxycholic Acid 128.781)): 1043.78 RLU | RLU (Time (s) 130.797 (Chenodeoxycholic Acid 130.781)): 1042.75 RLU | RLU (Time (s) 132.797 (Chenodeoxycholic Acid 132.781)): 1039.88 RLU | RLU (Time (s) 134.797 (Chenodeoxycholic Acid 134.781)): 1050.77 RLU | RLU (Time (s) 136.797 (Chenodeoxycholic Acid 136.781)): 1036.12 RLU | RLU (Time (s) 137.562 (Taurocholic Acid 137.563, Chenodeoxycholic Acid 137.546)): 1048.18 RLU | RLU (Time (s) 143.578 (Taurocholic Acid 143.563, Chenodeoxycholic Acid 143.546)): 1008.4 RLU | RLU (Time (s) 149.578 (Taurocholic Acid 149.563, Chenodeoxycholic Acid 149.546)): 998.739 RLU | RLU (Time (s) 155.578 (Taurocholic Acid 155.563, Chenodeoxycholic Acid 155.546)): 977.028 RLU | RLU (Time (s) 161.578 (Taurocholic Acid 161.563, Chenodeoxycholic Acid 161.546)): 958.674 RLU | RLU (Time (s) 167.578 (Taurocholic Acid 167.563, Chenodeoxycholic Acid 167.546)): 918.668 RLU | RLU (Time (s) 173.578 (Taurocholic Acid 173.563, Chenodeoxycholic Acid 173.546)): 888.356 RLU | RLU (Time (s) 179.578 (Taurocholic Acid 179.563, Chenodeoxycholic Acid 179.546)): 847.479 RLU | RLU (Time (s) 191.578 (Taurocholic Acid 191.563, Chenodeoxycholic Acid 191.546)): 745.479 RLU | RLU (Time (s) 197.578 (Taurocholic Acid 197.563, Chenodeoxycholic Acid 197.546)): 696.127 RLU | RLU (Time (s) 209.578 (Taurocholic Acid 209.563, Chenodeoxycholic Acid 209.546)): 643.487 RLU | RLU (Time (s) 221.578 (Taurocholic Acid 221.563, Chenodeoxycholic Acid 221.546)): 526.781 RLU | RLU (Time (s) 233.578 (Taurocholic Acid 233.563, Chenodeoxycholic Acid 233.546)): 416.225 RLU | RLU (Time (s) 239.578 (Taurocholic Acid 239.563, Chenodeoxycholic Acid 239.546)): 342.018 RLU | RLU (Time (s) 245.578 (Taurocholic Acid 245.563, Chenodeoxycholic Acid 245.546)): 303.535 RLU | RLU (Time (s) 293.578 (Taurocholic Acid 293.563, Chenodeoxycholic Acid 293.546)): 127.213 RLU | RLU (Time (s) 299.578 (Taurocholic Acid 299.563, Chenodeoxycholic Acid 299.546)): 108.412 RLU | RLU (Time (s) 305.578 (Taurocholic Acid 305.563, Chenodeoxycholic Acid 305.546)): 98.929 RLU | RLU (Time (s) 311.578 (Taurocholic Acid 311.563, Chenodeoxycholic Acid 311.546)): 88.6159 RLU | RLU (Time (s) 317.578 (Taurocholic Acid 317.563, Chenodeoxycholic Acid 317.546)): 79.3923 RLU | RLU (Time (s) 323.578 (Taurocholic Acid 323.563, Chenodeoxycholic Acid 323.546)): 80.4704 RLU | RLU (Time (s) 329.578 (Taurocholic Acid 329.563, Chenodeoxycholic Acid 329.546)): 68.4196 RLU | RLU (Time (s) 335.578 (Taurocholic Acid 335.563, Chenodeoxycholic Acid 335.546)): 88.4103 RLU | RLU (Time (s) 341.578 (Taurocholic Acid 341.563, Chenodeoxycholic Acid 341.546)): 53.5929 RLU | RLU (Time (s) 347.578 (Taurocholic Acid 347.563, Chenodeoxycholic Acid 347.546)): 48.7046 RLU | RLU (Time (s) 353.578 (Taurocholic Acid 353.563, Chenodeoxycholic Acid 353.546)): 68.797 RLU | RLU (Time (s) 359.578 (Taurocholic Acid 359.563, Chenodeoxycholic Acid 359.546)): 47.7517 RLU | Activation threshold concentration TAS2R14 (lowest concentration with significantly increased fluorescence vs empty vector (p < 0.01)): 300 µM
